PMC4424274, “Evaluation of [^11C]CB184 for imaging and quantification of TSPO overexpression in a rat model of herpes encephalitis” (European Journal of Nuclear Medicine and Molecular Imaging, 2015)
Where “and” joins values, the source holds several entries; their conditions need not be identical. Equal values may be shown once. Read-outs that look alike come from different tables or passages of the source. Each block holds one compound with its values, some of them ahead of it.

What was measured:
[1] = lipophilicity; cited from earlier work
[2] = design: method as in PMID 19050880; conditions: cited from earlier work
[3] = biological target: T1, TSPO (Rattus norvegicus, UniProt P16257); experiment: Kinetic modelling of PET data (2TCMR, Logan): BPND and VT; assay type: in vivo
T1 construct: from tissue; host or cells: Brain regions and peripheral organs of male Wistar rats, measured in vivo by PET and ex vivo by gamma counting
Method: (§1) PET scans with arterial blood sampling were performed in a different set of rats to generate input for pharmacokinetic modelling. For the arterial blood sampling a cannula was inserted into the femoral artery after induction of anaesthesia. The femoral vein was additionally cannulated for PET tracer injection. After cannulation, the rats were positioned in the camera and a transmission scan was acquired using a ^57Co point source. […] A 0.1 ml blood sample of was taken at 0, 5, 10, 15, 20, 30, 45, 60, 75, 90, 120, 180, 300, 450, 600, 900, 1,800 and 3,600 s after injection. A larger blood sample of 0.5 ml was taken at three time points (5, 15, 30 and/or 60 min) for metabolite analysis. After collection of each blood sample, heparinized saline was injected to prevent large changes in blood pressure. A 25 μl aliquot of whole blood was extracted from each sample for radioactivity measurement. The remainder of each sample was centrifuged at 13,000 rpm (15,996 g) for 8 min, and 25 μl plasma was taken for radioactivity measurement. The radioactivity in blood and plasma was measured with a gamma counter.
The TACs of those rats in which blood sampling was performed, together with their corresponding whole-blood and metabolite-corrected plasma curves, were used for pharmacokinetic modelling using PMOD v3.3 (PMOD Technologies, Zürich, Switzerland). […] The reversible two-tissue compartment model (2TCMR) with K 1/k 2 fixed to the whole cortex value and a fixed blood volume of 3 % were used to calculate the V T and nondisplaceable binding potential (BPND, calculated as k 3/k 4 [29]).

[4] = Plasma clearance and plasma metabolite analysis; assay type: in vivo, rat; conditions: metabolite-corrected plasma, intravenous injection, rats
Method: as §1
Radioactive metabolites in plasma were measured using the extra blood samples taken at three time points during each scan (5, 15, 30 and/or 60 min). After centrifugation and collection of the plasma sample for radioactive measurement, as described above, the remaining plasma was diluted with acetonitrile (1.5 times the amount of plasma) and vortex-mixed. The plasma suspension was centrifuged at 5,300 rpm (3,030 g) for 3 min, and divided into supernatant and pellet. […] Fractions of 30 s were collected and measured in the gamma counter.
The percentage of metabolites in plasma was calculated by fitting an exponential function to the values obtained from the HPLC analysis. The plasma values obtained from the blood samples during the PET scan were then corrected for the presence of these metabolites, and used together with the whole-blood curve for further analysis. Metabolite corrected plasma TACs were fitted for each individual rat using iterative nonlinear least-squares fitting to the biexponential equation: SUVt = Ae^−αt + Be^−βt, where SUVt is the plasma SUV at time t, α and β are the apparent distribution and elimination rate constants (s^−1), respectively, and A and B are the corresponding zero-time intercepts. The weighting factors were the reciprocals of the plasma SUV squared. Distribution and elimination half-lives (seconds) were calculated as the natural logarithm of 2 divided by α and β, respectively.

[5] = biological target: T1, TSPO; experiment: Ex vivo biodistribution of [^11C]CB184 in control and HSE rats; conditions: 5 mg/kg unlabelled PK11195 5 min before tracer injection; control and HSE rats
Method: PET scans were performed using a microPET Focus 220 camera (Siemens Medical Solutions Inc., Malvern, PA) on either day 6 or day 7 after inoculation with HSV-1 [18], depending on the severity of clinical symptoms. The rats were anaesthetized with 5 % isoflurane mixed with medical air at a flow rate of […]. After induction, anaesthesia was maintained with 1.5 – 2 % of isoflurane. The anaesthetized rats were positioned in the camera in a supine position with the head in the field of view. The PET tracer [^11C]CB184 was manually injected via the penile vein, and at the same time a dynamic 60-min scan was started. […] For 30 min the animals were kept under anaesthesia on the operation table after injection of the PET tracer into the penile vein, and were then placed in the scanner for a 30-min dynamic scan. A transmission scan was obtained in all rats using a ^57Co point source for attenuation and scatter correction. In the pretreated group, 5 mg/kg unlabelled PK11195 (Sigma-Aldrich, St. Louis, MO) in dimethyl sulphoxide (DMSO) at a concentration of 10 mg/ml was administered via a tail vein 5 min before injection of the PET tracer.
The brain and peripheral organs were excised and dissected, and blood was centrifuged to collect a plasma sample. Tissues were weighed and radioactivity was measured in a gamma counter (LKB Wallac, Turku, Finland). Tracer uptake in each region was corrected for the injected tracer dose and body weight and expressed as standardized uptake value (SUV), which was defined as: radioactivity (MBq/cm^3)/[injected dose (MBq)/body weight (g)].

[6] = biological target: T1, TSPO; conditions: HSE rat model; cited from earlier work
[7] = control rats (PBS group), k3/k4

- Binding potential (BPND), Amygdala ([3]; HSE group, k3/k4): 1.92 ± 0.73
- Binding potential (BPND), Cerebellum ([3]; HSE group, k3/k4): 1.89 ± 0.39
- Binding potential (BPND), Frontal cortex ([3]; HSE group, k3/k4): 1.54 ± 0.54
- Binding potential (BPND), Hippocampus ([3]; HSE group, k3/k4): 1.39 ± 0.58
- Binding potential (BPND), Hypothalamus ([3]; HSE group, k3/k4): 2.28 ± 0.84
- Binding potential (BPND), Midbrain ([3]; HSE group, k3/k4): 1.34 ± 0.42
- Binding potential (BPND), Olfactory bulb ([3]; HSE group, k3/k4): 4.03 ± 1.20
- Binding potential (BPND), Pons ([3]; HSE group, k3/k4): 2.44 ± 0.41
- Binding potential (BPND), Rest cortices ([3]; HSE group, k3/k4): 1.62 ± 0.60
- Binding potential (BPND), Septum ([3]; HSE group, k3/k4): 1.34 ± 0.57
- Binding potential (BPND), Striatum ([3]; HSE group, k3/k4): 1.03 ± 0.43
- Binding potential (BPND), Thalamus ([3]; HSE group, k3/k4): 1.03 ± 0.51
- Binding potential (BPND), Whole brain ([3]; HSE group, k3/k4): 1.72 ± 0.49
- Binding potential (BPND), Amygdala [3, 7]: 1.65 ± 0.62
- Binding potential (BPND), Cerebellum [3, 7]: 1.51 ± 0.60
- Binding potential (BPND), Frontal cortex [3, 7]: 1.35 ± 0.51
- Binding potential (BPND), Hippocampus [3, 7]: 0.98 ± 0.44
- Binding potential (BPND), Hypothalamus [3, 7]: 1.92 ± 0.82
- Binding potential (BPND), Medulla [3, 7]: 1.7 ± 0.6 and 1.65 ± 0.60
- Binding potential (BPND), Midbrain [3, 7]: 0.96 ± 0.49
- Binding potential (BPND), Olfactory bulb [3, 7]: 3.76 ± 1.16
- Binding potential (BPND), Pons [3, 7]: 1.74 ± 0.69
- Binding potential (BPND), Rest cortices [3, 7]: 1.33 ± 0.46
- Binding potential (BPND), Septum [3, 7]: 1.20 ± 0.38
- Binding potential (BPND), Striatum [3, 7]: 0.88 ± 0.33
- Binding potential (BPND), Thalamus [3, 7]: 0.75 ± 0.35
- Binding potential (BPND), Whole brain [3, 7]: 1.38 ± 0.49
- Increase of BPND in the medulla, HSE rats vs. control rats ([3]; medulla): 55%
- Distribution half-life in plasma [4]: 0.367 ± 0.12 min
- Elimination half-life in plasma [4]: 65 ± 46 min
SMILES: CC[C@@H](C)N([11CH3])C(=O)c1cc2ccccc2c(-c2ccccc2Cl)n1 [(R)-[^11C]PK11195, reference compound]
- logP [1]: 2.54
- Percentage of unchanged tracer in rat brain homogenate ([2]; 20 min after injection): 93 ± 4%
- Percentage of unchanged tracer in rat brain homogenate ([2]; 40 min after injection): 90 ± 7%

SMILES: CCC(C)N(C)C(=O)c1cc2ccccc2c(-c2ccccc2Cl)n1 (centres unmarked) [PK11195, reference compound]
- Effect of pretreatment on [^11C]CB184 binding to TSPO [5]: blocked

SMILES: COc1ccc(O[11CH3])c(CN(C(C)=O)c2cc(F)ccc2Oc2ccccc2)c1 [[^11C]DAA1106]
- Uptake in vivo in HSE rats vs. control rats [6]: did not show significantly higher uptake
